Assay: release of API into water from dried API-biopolymer pellets, measured by UV/VIS spectroscopy
Assay type: physicochemical
Conditions: from the dry biopolymer matrix, versus acetyl salicylic acid
Method: Briefly biopolymer suspensions were produced with a known quantity of API added to the suspensions. The suspensions with API were then dried as pellets. These pellets were then added to a known volume of water and aliquots of the water were removed periodically to determine the rate of release of the API. The API concentration was measured using UV/VIS spectroscopy. The sample was dried for 10 hours in air and 3 hours in the oven at 50° C. The acetaminophen concentration in dried materials was 29.58% w/w. This figure represents release of acetaminophen into water from the dried acetaminophen doped chitin suspension, where the concentration of acetaminophen, in g/L, is plotted against time, in minutes.

For `CC(=O)Nc1ccc(O)cc1` [acetaminophen], the “release rate compared between drugs” value was “slower release”.

From patent US20250248940A1, “Biopolymer Formulations for Drug Delivery” (11584022 Canada Inc., priority 2022, published 2025)
